Results from patent US10016515B2, “DMA, a bis-benzimidazole, confers radioprotection to the intestine via Akt/NFκB dual pathway activation” (Jawaharlal Nehru University, priority 2016, dated 2018).
Where two headings read alike, the source gives them in different places.

Assays:
[1] = test system: A549 cells; test: Growth kinetics with DMA prior to 6 Gy radiation; assay type: cell-based, human; conditions: for % growth compared to control: A549, 50 μM DMA prior to 6 Gy; for % radioprotection: A549, 6 Gy
Experimental: FIG. 2. Radioprotection by DMA Against Radiation in MRC5 and A549 Cell Lines. A) Proliferation of viable MRC5. B) Graphical representation of % survival of MRC5 cell line at 24 and 48 h C) A549 treated with 50 μM DMA in presence and absence of 6 Gy radiation and D) Graphical representation of % survival of A549 cell line at 24 and 48 h. Cell numbers were determined by haemocytometer at 0, 6, 12, 24 and 48 h. Values are mean (±SD) of three independent experiments. *p<0.05 compared to the control group.
2 h subsequent to DMA treatment, cells was exposed to γ-irradiation (1.3 Gy/min dose rate) using Co-60 source (Institute of Nuclear Medicine and Allied Sciences, Delhi, India). Following irradiation, cells were incubated for 4 h in a 5% CO2 humidified incubator and processed for further sample preparation.

[2] = test system: melanoma bearing Balb/c mice; conditions: 300 mg/kg oral (Nimesh et al. 2015); cited from earlier work
[3] = test system: HEK293 cells; test: Cell-cycle analysis; assay type: cell-based, human
Experimental: The cell cycle analysis of Akt depleted HEK293 cells were done at 0, 1, 3, 6, 12, 18 and 24 h, washed twice with ice-cold PBS, and fixed in 70% ethanol. Cell pellets were stored at 4° C. for 24 h, and stained with 0.5 mL of propidium iodide (0.1% in 0.6% Triton X-100 in PBS) and 0.5 mL of RNase (2 mg/mL) for 30 min in dark. Samples were then analysed on a FACS Calibur flow-cytometer (Becton Dickinson).

[4] = test system: HEK293 cells; test: Actively proliferating cells by BrdU uptake; assay type: cell-based, human; conditions: 48 h
Experimental: FIG. 5. […] Tissue sections performed 3 days postirradiation (8Gy) with and without 50 mg/kg bw, i.v. DMA pretreatment with the control and DMA treated tissues (A) Images showing spleen, intestine and liver analysis at magnification 40× objective lens. (B) Small intestine, spleen and lung sections from melanoma tumor bearing mice at 40× & 60× objective lens (C) Immunohistochemical analysis of BrdU uptake in spleen and IL6 protein expression in intestine tissues at 100× objective lens magnification. (D) Graphical representation of actively proliferating HEK293 at 48 h and Balb/c intestinal cells by BrdU uptake under each condition (n=3/group from 2 independent experiments).

[5] = test system: Balb/c mice; assay type: in vivo; conditions: 400 mg/kg oral before 8Gy TBI
[6] = test system: Balb/c mice; assay type: in vivo
Experimental: Balb/c mice with or without DMA treatment were placed in a specially designed, well-ventilated acrylic container and subjected to whole-body irradiation at 5, 6, 8, 9 or 10 Gray (Gy) in a single fraction.
The mice were grouped as follows: Group 1, Sham control (normal saline treated); Group 2, radiation control (whole body exposure to 8 Gy); Group 3, treated with increasing doses (100, 150, 200, 450 and 600 mg/kg bw) of DMA 2 h prior to whole body exposure to 8 Gy and Group 4 treated with similar DMA doses only. Survival study was carried out for a period of 30 days and animals were routinely monitored for their body weight, food and water intake, radiation sickness symptoms and mortality to fix the highest effective dose of DMA against radiation induced toxicity.
Mice were treated with DMA (200 mg/kg bw) prior to whole body exposure to 5, 6, 8, 9 & 10 Gy. DRF was calculated ratio of LD50/30 mice treated with both DMA and radiation to the LD50/30 of mice treated with saline and radiation. Similarly survival with different route of administration of DMA was studied at 8 and 9 Gy TBI.

[7] = test system: melanoma bearing Balb/c mice; test: Melanoma tumor bearing mice, tumor volume and survival after TBI; assay type: in vivo, mouse
Experimental: EAT and B16F10 melanoma cell line were harvested and 10×10^6 and 0.8×10^6 cells respectively were injected subcutaneously in the Balb/c mice (n=24) on the right thigh. When tumors reached 0.5 cm^3 in volume, animals were randomized and divided into 4 different groups. The first test group was treated with 50 mg/kg, i.v. DMA, second test group subjected to 8 Gy TBI. Third group received 50 mg/kg, i.v. DMA and 8 Gy TBI both. The control group was similarly administered normal saline (0.1 ml, i.v.). On every alternate days, tumor-bearing thigh of each animal was shaved, and the longest (1) and shortest diameter (b) of the tumors along with height (h) were measured with the help of a vernier calliper. Tumor weight of each animal was calculated using the formula l*b*h/2.

[8] = test system: HEK293 cells; test: Proliferation kinetics in presence of inhibitors; assay type: cell-based, human
Experimental: HEK293 cells post 50 μM LY294002 (PI3K/Akt inhibitor) and 10 μM PS1145 (NFκB inhibitor) treatment were treated with 50 μM DMA and 5 Gy radiation. Same experiment was done with control (no inhibitor), only LY294002 and only PS1145 treated HEK cells. Percentage (%) radioprotection of cells at 24, 48 and 72 h was calculated by following formula— % growth of Radiation treated cells=(CNRadiation/CNControl)×100. % growth of DMA+Radiation treated cells=(CNDMA+Radiaion/CNControl)×100. % Radioprotection=% growth of DMA+Radiation treated cells−% growth of Radiation treated cells where CN is the cell number.

Which “% growth compared to control” value ([1]; 24 h) does the source give for `COc1ccc(-c2nc3cc(-c4nc5cc(N6CCN(C)CC6)ccc5[nH]4)ccc3[nH]2)cc1OC` [DMA, 5-(4-methylpiperazin-1-yl)-2-[2′-(3,4-dimethoxyphenyl)-5′-benzimidazolyl]benzimidazole] here?
The value was 73%.

And the “% growth compared to control” value ([1]; 48 h)?
Its value is 68%.

What about the “% radioprotection” value ([1]; 24 h) of the same compound?
Its value is 11.1%.

And the “% radioprotection” value ([1]; 48 h)?
The value was 15%.

And the “Protection of tumor tissues” value [2]?
Its value is “no protection to tumor tissues”.

What about the G2 check point ([3]; HEK293, DMA 50 μM alone) of the same compound?
The G2 check point was “no significant G2 check point”.

What about the G2-M progression ([3]; HEK293, DMA+Radiation (5Gy), 18 h) of the same compound?
The G2-M progression was “significant G2-M delay”.

And the “Cells at active S phase” value ([4]; HEK293, DMA treated)?
Its value is 30%.

What about the S phase cells ([4]; HEK293, DMA+Radiation (5Gy)) of the same compound?
Its S phase cells is “came back to normal”.

And the 30-days survival rate [5]?
The 30-days survival rate was 90%.

What about the Survival / radioprotection ([6]; 50 mg/kg i.v. 2 h prior to 8Gy TBI) of the same compound?
Its Survival / radioprotection is 100%.

What about the Survival ([6]; 50 mg/kg i.v., 9Gy TBI) of the same compound?
The Survival was 50%.

What about the Radioprotection ([6]; 50 mg/kg s.c. 3 h prior to 8Gy TBI) of the same compound?
Its Radioprotection is 20%.

What about the 30-days survival rate ([6]; 100 mg/kg oral before 8Gy TBI) of the same compound?
Its 30-days survival rate is 54%.

And the Survival ([6]; 125 mg/kg i.p. 2 h before 8Gy)?
The Survival was 55%.

What about the 30-days survival rate ([6]; 150 mg/kg oral before 8Gy TBI) of the same compound?
Its 30-days survival rate is 70%.

What about the 30-days survival rate ([6]; 200 mg/kg oral before 8Gy TBI (dose finding, FIG. 4C)) of the same compound?
Its 30-days survival rate is 80%.

And the 30-day survival rate ([6]; 200 mg/kg oral, 5Gy TBI)?
The 30-day survival rate was 100%.

And the 30-day survival rate ([6]; 200 mg/kg oral, 6Gy TBI)?
Its 30-day survival rate is 100%.

What about the 30-day survival rate ([6]; 200 mg/kg oral, 8Gy TBI (FIG. 4D)) of the same compound?
Its 30-day survival rate is 82%.

What about the 30-day survival rate ([6]; 200 mg/kg oral, 9Gy TBI) of the same compound?
The 30-day survival rate was 18%.

And the 30-day survival rate ([6]; 200 mg/kg oral, 10Gy TBI)?
Its 30-day survival rate is 12%.

What about the “Dose reduction factor (DRF)” value ([6]; 200 mg/kg oral, ratio of LD50/30, Balb/c mice) of the same compound?
The value was 1.28.

What about the “Effect of DMA by itself on rodents” value ([6]; DMA only) of the same compound?
Its value is “no effect”.

And the “Body weight after TBI” value ([6]; DMA pre-treated mice, after initial 9 days of radiation)?
Its value is “considerable weight regain”.

What about the “Survival of melanoma bearing Balb/c mice” value ([7]; 50 mg/kg i.v. 2 h before 8Gy TBI) of the same compound?
Its value is 50%.

And the “Radioprotection of tumor tissues” value ([7]; 50 mg/kg, 2 h before irradiation, melanoma model)?
The value was “less radioprotection”.

And the “% radioprotection by DMA” value ([8]; LY294002 and PS1145 simultaneously, 24 h)?
The value was 3%.

And the “% radioprotection by DMA” value ([8]; LY294002 and PS1145 simultaneously, 48 h)?
The value was 2.2%.

What about the “% radioprotection by DMA” value ([8]; LY294002 and PS1145 simultaneously, 72 h) of the same compound?
The value was 2%.

And the “% radioprotection by DMA” value ([8]; LY294002 treated cells, 24 h)?
Its value is 15%.

What about the “% radioprotection by DMA” value ([8]; LY294002 treated cells, 48 h) of the same compound?
The value was 10%.

And the “% radioprotection by DMA” value ([8]; LY294002 treated cells, 72 h)?
Its value is 4%.

And the “% radioprotection by DMA” value ([8]; PS1145 treated cells, 24 h)?
The value was 4%.

And the “% radioprotection by DMA” value ([8]; PS1145 treated cells, 48 h)?
Its value is 3.5%.

What about the “% radioprotection by DMA” value ([8]; PS1145 treated cells, 72 h) of the same compound?
The value was 2.4%.

And the “% radioprotection by DMA” value ([8]; no inhibitor, 50 μM DMA, 5 Gy, 24 h)?
The value was 40%.

And the “% radioprotection by DMA” value ([8]; no inhibitor, 50 μM DMA, 5 Gy, 48 h)?
Its value is 35%.

What about the “% radioprotection by DMA” value ([8]; no inhibitor, 50 μM DMA, 5 Gy, 72 h) of the same compound?
Its value is 16%.
